From patent US20200163854A1, “LIFE-EXTENDING AGENT, ANTI-AGING AGENT, COSMETIC, AND FOOD/BEVERAGE COMPOSITION” (KYOTO UNIVERSITY, priority 2017, published 2020)
Where two headings read alike, the source gives them in different places.

Assays:
[1] = tested on: Drosophila flies, premature aging strain (sod1[n1] mutants), male; conditions: vs control medium
Method: Mutants of adult Drosophila flies (male) containing Cu/Zn-SOD with reduced activity due to amino acid substitution (sod1[n1]) were bred in a plastic tube having a diameter of 25 mm, and fed with a simple medium (instant medium) for Drosophila that contains D-proline (D-Pro) at a concentration of 20, 60, 200, or 400 μg/ml, or L-proline (L-Pro) at a concentration of 400 μg/ml, followed by measuring the life span of the flies. […] For the control, a simple medium to which no D-Pro or L-Pro was added was used.
(§1) Mutants of adult Drosophila flies (male) containing Cu/Zn-SOD with reduced activity due to amino acid substitution (sod1[n1]) were bred in a plastic tube having a diameter of 25 mm, and fed with a simple medium (instant medium) for Drosophila that contains D-proline (D-Pro) at a concentration of 400 μg/ml, or D-aspartic acid (D-Asp) at a concentration of 60, 200, or 400 μg/ml, followed by measuring the life span of the flies. […] For the control, a simple medium to which no D-Pro or D-Asp was added was used.
as §1, with “D-hydroxyproline (D-HP)” for “D-aspartic acid (D-Asp)”, “D-HP” for “D-Asp”

[2] = tested on: spleen-derived mononuclear cells (T cells with senescence marker); conditions: 0.2 mg/ml in water, free intake, Day 495; compared to control group or L-proline group
Method: (§2) After euthanasia on Day 495, the spleen was removed and ground through a 0.45-μM strainer to prepare a suspension of spleen-derived cells (FIG. 4). After centrifugation at 1000 g for 5 minutes, the supernatant was removed by suction. Thereafter, 2 ml of ammonium chloride hemolytic agent (distilled water containing 8.99 mg/ml of NH4Cl, 1 mg/ml of KHCO3, and 37 μg/ml of EDTA4Na) was added to the cell pellets, followed by suspension. The resulting product was then allowed to stand at room temperature for 2 minutes. Subsequently, 10 ml of RPMI 1640 medium with 10% FBS was added thereto, the mixture was centrifuged at 1000 g for 5 minutes, and the supernatant was removed by suction. Then, 5 ml of RPMI 1640 medium with 10% FBS was added thereto to prepare a cell suspension (spleen-derived mononuclear cells).
After placing 1×10^6 spleen-derived mononuclear cells of Example 4 into a 1.5-ml Eppendorf tube, centrifugation was performed at 900 g for 5 minutes. Then, the supernatant was removed by suction, and 50 μl of FACS buffer (PBS(−) in which 0.5% BSA, 0.01% NaNO, and 1 mM EDTA were dissolved) was added thereto. Thereafter, incubation was performed on ice for 20 minutes with an FITC-labeled mouse anti-CD27 antibody (NOVUS; NPB-1-44021) and a PE-labeled mouse anti-CD62L antibody (ABGENT; ATB10190). […]

[3] = tested on: Menin gene and Bach2 gene mRNA; conditions: 0.2 mg/ml in water, free intake, Day 495; compared to control group or L-proline group
Method: as §2
Total RNA was extracted from 1×10^5 spleen-derived mononuclear cells of Example 4 using an RNeasy Mini Kit, produced by Qiagen. […] The mRNA levels of the Menin gene and the Bach2 gene were quantified as a ratio relative to the β-actin gene mRNA level, and calculated taking the value of the spleen-derived mononuclear cells of the control group as 1.

[4] = mixed with feed at 60, 200 or 400 μg/ml

Structure (SMILES) | life span of aging-promoting adult Drosophila flies ([1]; mixed with feed at 400 μg/ml) | life span of aging-promoting adult Drosophila flies [1, 4] | number of T cells with a senescence marker of CD62-negative or CD27-negative [2] | mRNA expression of the Bach2 gene (ratio to β-actin, control = 1) [3] | mRNA expression of the Menin gene (ratio to β-actin, control = 1) [3] | life span of aging-promoting adult Drosophila flies ([1]; mixed with feed at 20, 60, 200 or 400 μg/ml)
O=C(O)[C@H]1C[C@H](O)CN1 [D-hydroxyproline] | extends the life span | extended the life span of Drosophila flies in a concentration-dependent manner | – | – | – | –
O=C(O)[C@H]1CCCN1 [D-proline] | significantly higher effect | – | significantly reduced number | higher mRNA expression | higher mRNA expression | dose-dependently extends the life span
O=C(O)[C@@H]1CCCN1 [L-proline, reference compound] | no effect | – | – | – | – | –
N[C@H](CC(=O)O)C(=O)O [D-aspartic acid] | extends the life span | extended the life span of Drosophila flies in a concentration-dependent manner | – | – | – | –
